Assay results reported in paper PMC6925736, “Development of a HPLC-MS/MS Method to Determine the 13 Elements of Semen Cuscutae and Application to a Pharmacokinetic Study in Rats” (Evidence-based Complementary and Alternative Medicine : eCAM, 2019).

What was measured:
[1] = Stability of analytes in rat plasma QC samples under processing and storage conditions; assay type: in vitro ADME; conditions: n = 6; for Measured concentration, room temperature for 4h / Measured concentration, three freeze-thaw / Measured concentration, −70°C for 21 days: rat plasma; for Measured concentration, autosampler for 12h: treated rat plasma sample
Experimental: The stability of the 13 analytes was evaluated by QC samples in different processing and storage conditions, including short-term stability (putting the analytes in ambient temperature for 4 h and storing analytes in autosampler for 12 h after treatment), long-term stability (storing the analytes at −70°C for 21 days) and subjecting analytes to three freeze-thaw cycles. All stability experiments were tested in six parallels with low, middle, and high concentrations.

[2] = Pharmacokinetic study in rats after oral administration of Semen Cuscutae extract (HPLC-MS/MS of plasma); assay type: in vivo, Sprague–Dawley rats; conditions: oral Semen Cuscutae extract 13 g/kg; for plasma concentration after 15 minutes of intragastric administration / AUC(0-inf) / Cmax / AUC / T max / t 1/2: rat plasma; for plasma concentration after 15 minutes of intragastric administration: LLOQ 1 ng/mL; for AUC: read-out: AUC(0-tn)
Experimental: 20 μL of methanol, 20 μL of IS (liquiritin, 200 ng/mL) and 20 μL of formic acid were added to 100 μL of plasma sample and then vortex-mixed. The mixture was extracted with 800 μL of acetonitrile by vortexing for 3 min. After centrifugation at 14000 rpm for 10 min, the supernatant was transferred to a clean glass tube and dried with nitrogen. The residue was reconstituted in 100 μL of methanol and then centrifuged at 14000 rpm for 10 min. 5 μL of supernatant was injected into the LC–MS/MS system for analysis.
Six Sprague–Dawley rats (SPF, 200 ± 10 g, male) were purchased from HFK Laboratory Animal Technology Co., Ltd. The rats were housed in a standard laboratory condition (12 h dark-light cycle; temperature was 25°C ± 2°C and humidity was kept 50 ± 5%) and fed standard dry pellet diet and water for one week for acclimatization. Before the experiments, the rats were in fasting state for 12 h, with free access to water. The Semen Cuscutae extracts were dissolved in 0.5% carboxymethyl cellulose-sodium, prepared into suspension and gavage to the rats at a dose of 13 g/kg. Approximately 200 μL of rat blood samples was collected from the orbital venous plexus at 0, 0.03, 0.08, 0.17, 0.25, 0.5, 1, 2, 4, 6, 8, 10, 12, 24, 36, and 48 h after oral administration into 1.5 mL heparinized centrifuge tube. After centrifugation at 7000 rpm for 10 min immediately, the supernatant was collected into a new centrifuge tube and stored at −70°C until analysis.
Pharmacokinetic parameters (Cmax, t1/2, Tmax, AUC(0-tn), and AUC(0-∞)) were obtained using the software “Drug and Statistics 3.0” (DAS 3.0) (Medical College of Wannan, China).

[3] = male, Sprague-Dawley, rat, plasma, po, 13 g/kg, n = 6

Structure (SMILES) | Measured concentration, room temperature for 4h ([1]; spiked 2 ng/mL) [ng/mL] | Measured concentration, three freeze-thaw ([1]; spiked 2 ng/mL) [ng/mL] | Measured concentration, −70°C for 21 days ([1]; spiked 2 ng/mL) [ng/mL] | Measured concentration, room temperature for 4h ([1]; spiked 25 ng/mL) [ng/mL] | Measured concentration, three freeze-thaw ([1]; spiked 25 ng/mL) [ng/mL] | Measured concentration, −70°C for 21 days ([1]; spiked 25 ng/mL) [ng/mL] | Measured concentration, room temperature for 4h ([1]; spiked 250 ng/mL) [ng/mL] | Measured concentration, three freeze-thaw ([1]; spiked 250 ng/mL) [ng/mL] | Measured concentration, −70°C for 21 days ([1]; spiked 250 ng/mL) [ng/mL] | Measured concentration, autosampler for 12h ([1]; spiked 2 ng/mL) [ng/mL] | Measured concentration, autosampler for 12h ([1]; spiked 25 ng/mL) [ng/mL] | Measured concentration, autosampler for 12h ([1]; spiked 250 ng/mL) [ng/mL] | AUC(0-inf) ([2]; male, Sprague-Dawley, n = 6) [ng·h/mL] | Cmax ([2]; male, Sprague-Dawley, n = 6) [ng/mL] | AUC ([2]; male, Sprague-Dawley, n = 6) [ng·h/mL] | T max ([2]; n = 6) [min] | t 1/2 ([2]; n = 6) [min] | half-life [2, 3] [min] | further results
O=c1cc(-c2ccc(O)cc2)oc2cc(O)cc(O)c12 [Apigenin] | 2.2 ± 0.1 | 2.0 ± 0.1 | 2.1 ± 0.1 | 26.4 ± 1.2 | 25.7 ± 2.0 | 26.5 ± 1.3 | 249.3 ± 12.8 | 262.2 ± 16.0 | 257.8 ± 8.2 | 2.1 ± 0.2 | 25.0 ± 1.2 | 248.5 ± 4.9 |  |  |  |  |  |  | plasma concentration after 15 minutes of intragastric administration [2]: lower than the LLOQ
O=c1c(O[C@@H]2O[C@H](CO)[C@@H](O)[C@H](O)[C@H]2O)c(-c2ccc(O)cc2)oc2cc(O)cc(O)c12 [Astragalin] | 2.1 ± 0.1 | 2.1 ± 0.1 | 2.0 ± 0.1 | 27.6 ± 1.2 | 27.2 ± 0.8 | 26.1 ± 1.2 | 248.1 ± 4.3 | 258.6 ± 8.5 | 251.5 ± 8.7 | 2.1 ± 0.1 | 27.3 ± 1.0 | 254.6 ± 4.6 | 441 ± 292 | 58.2 ± 28.5 | 370 ± 259 | 14.4 ± 5.4 | 27 ± 15.6 |  | T max ([2]; n = 6, listed as astragalin): less than 1 h; t 1/2 ([2]; n = 6, listed as astragalin): less than 1.5 h
O=C(O)/C=C/c1ccc(O)c(O)c1 [Caffeic acid] | 2.1 ± 0.1 | 2.1 ± 0.1 | 2.0 ± 0.1 | 27.9 ± 1.0 | 27.0 ± 1.3 | 26.0 ± 0.6 | 272.5 ± 8.9 | 255.7 ± 3.9 | 250.2 ± 5.1 | 2.2 ± 0.1 | 28.1 ± 0.8 | 262.6 ± 7.4 | 652 ± 292 | 33.7 ± 8.43 | 613 ± 291 |  | 696 ± 55.2 | > 450 | Tmax [2, 3]: 16.8 ± 2.4 min
O=C(/C=C/c1ccc(O)c(O)c1)O[C@@H]1C[C@](O)(C(=O)O)C[C@@H](O)[C@H]1O [Chlorogenic acid] | 2.1 ± 0.1 | 2.1 ± 0.1 | 2.1 ± 0.1 | 27.7 ± 1.6 | 28.1 ± 1.0 | 26.6 ± 1.2 | 258.4 ± 15.7 | 268.6 ± 15.8 | 253.6 ± 7.7 | 2.1 ± 0.1 | 26.6 ± 1.6 | 253.1 ± 6.0 | 1000 ± 646 | 35.5 ± 7.3 | 995 ± 654 | 13.2 ± 3.6 | 61.2 ± 40.2 | < 90 | T max ([2]; n = 6, listed as chlorogenic acid): less than 1 h
O=C(/C=C/c1ccc(O)c(O)c1)O[C@H]1[C@H](O)C[C@](O)(C(=O)O)C[C@H]1O [Cryptochlorogenic acid] | 2.0 ± 0.1 | 2.0 ± 0.1 | 2.0 ± 0.1 | 27.0 ± 1.8 | 26.2 ± 0.3 | 25.5 ± 1.2 | 260.4 ± 3.3 | 248.9 ± 6.5 | 244.4 ± 7.4 | 2.1 ± 0.1 | 27.3 ± 0.6 | 251.2 ± 9.7 |  |  |  |  |  |  | plasma concentration after 15 minutes of intragastric administration [2]: lower than the LLOQ
O=c1c(O[C@@H]2O[C@H](CO)[C@H](O)[C@H](O)[C@H]2O)c(-c2ccc(O)c(O)c2)oc2cc(O)cc(O)c12 [Hyperoside] | 2.0 ± 0.1 | 2.1 ± 0.1 | 1.9 ± 0.1 | 23.0 ± 1.2 | 26.2 ± 1.5 | 26.4 ± 1.8 | 244.4 ± 14.3 | 254.7 ± 9.7 | 256.4 ± 15.8 | 1.8 ± 0.1 | 23.6 ± 0.7 | 230.2 ± 13.1 | 754 ± 424 | 29.8 ± 12.8 | 684 ± 407 | 10.2 ± 4.2 | 21.6 ± 13.8 |  | T max ([2]; n = 6, listed as hyperoside): less than 1 h; t 1/2 ([2]; n = 6, listed as hyperoside): less than 1.5 h
COc1cc(-c2oc3cc(O)cc(O)c3c(=O)c2O[C@@H]2O[C@H](CO)[C@@H](O)[C@H](O)[C@H]2O)ccc1O [Isorhamnetin-3-O-glucoside] | 2.0 ± 0.1 | 2.0 ± 0.1 | 2.1 ± 0.1 | 27.1 ± 1.3 | 27.1 ± 1.5 | 26.2 ± 0.6 | 259.9 ± 5.5 | 255.0 ± 5.7 | 249.5 ± 7.0 | 2.1 ± 0.1 | 26.9 ± 1.0 | 251.5 ± 5.4 | 257 ± 74.4 | 19.5 ± 9.8 | 172 ± 49.2 | 18 ± 0.6 | 73.8 ± 15.6 | < 90 | T max ([2]; n = 6, listed as isorhamnetin-3-O-glucoside): less than 1 h
